Data: ChEMBL document CHEMBL1140370, “Molecular modeling and molecular dynamics simulation of the human A2B adenosine receptor. The study of the possible binding modes of the A2B receptor antagonists” (J Med Chem, 2005)

Biological target: T1, Adenosine receptor A2b (Homo sapiens, UniProt P29275)
T1 sequence (P29275 whole entry): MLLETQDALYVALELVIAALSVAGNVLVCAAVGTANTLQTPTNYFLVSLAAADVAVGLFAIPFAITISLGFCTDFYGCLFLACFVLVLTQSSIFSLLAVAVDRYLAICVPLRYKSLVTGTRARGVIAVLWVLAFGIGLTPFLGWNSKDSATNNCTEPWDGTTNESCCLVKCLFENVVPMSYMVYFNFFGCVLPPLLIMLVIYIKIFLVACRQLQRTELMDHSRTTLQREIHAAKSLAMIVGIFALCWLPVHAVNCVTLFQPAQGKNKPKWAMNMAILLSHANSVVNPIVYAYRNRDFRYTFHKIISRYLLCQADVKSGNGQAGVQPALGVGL
Test: Antagonist activity against human Adenosine A2b receptor
Assay type: functional

Ki | Compound
18 nM | CCCn1c(=O)c2[nH]c(-c3cc(OCC(=O)O)no3)nc2n(CCC)c1=O
4.8 nM | CCCn1c(=O)c2[nH]c(-c3ccc(OCC(=O)Nc4ccc(F)cc4)nc3)nc2n(CCC)c1=O
